Experimental data from ChEMBL document CHEMBL1123997, “Modeling of beta-adrenoceptors based on molecular electrostatic potential studies of agonists and antagonists” (J Med Chem, 1988).

Tests used:
[1] = biological target: T1, Adrenergic receptor beta (Homo sapiens) (UniProt P08588+P07550+P13945)
[2] = biological target: T1, Adrenergic receptor beta (Homo sapiens); settings: filed as antagonist
[3] = biological target: T1, Adrenergic receptor beta (Homo sapiens); remark: listed apart in the source
[4] = biological target: T1, Adrenergic receptor beta (Homo sapiens); settings: filed as antagonist; remark: listed apart in the source
[5] = biological target: T1, Adrenergic receptor beta (Homo sapiens); settings: filed as agonist
Description: Tested for intrinsic sympathomimetic activity (ISA); Agonist

CCN(CC)C(=O)Nc1ccc(OCC(O)CNC(C)(C)C)c(C(C)=O)c1 (centres undefined)
ISA [1]: Partial agonist

Cc1cc2c(OCC(O)CNC(C)C)cccc2[nH]1 (centres undefined)
ISA [1]: Partial agonist

CC(C)(C)NCC(O)COc1cccc2c1CCCC2=O (centres undefined)
ISA [2]: Antagonist

CCc1cccc2cc(C(O)CNC(C)(C)C)oc12 (centres undefined)
ISA [3]: Partial agonist

CC(C)(C)NCC(O)COc1cccc2c1CC(O)C(O)C2 (centres undefined)
ISA [4]: Antagonist

CC(C)NCC(O)c1ccc(Cl)c(Cl)c1 (centres undefined)
ISA [3]: Partial agonist

CC(C)(C)NCC(O)COc1cccc2c1SCCC2 (centres undefined)
ISA [4]: Antagonist

CC(C)(C)NC[C@H](O)COc1cccc2c1CC1(CCCCC1)C2=O
ISA [4]: Antagonist

COCCOc1ccc(OC[C@@H](O)CNC(C)C)cc1
ISA [3]: Partial agonist

COc1ccc(CCNC[C@H](O)COc2ccc(Cc3nc(C(C)=O)c[nH]3)cc2)cc1OC
ISA [4]: Antagonist

CC(C)NCC(O)COc1cccc2[nH]ccc12 (centres undefined)
ISA [3]: Partial agonist

COc1ccc(CCNC[C@H](O)COc2ccc(-c3nc(C(C)=O)c[nH]3)cc2)cc1OC
ISA [1]: Partial agonist

CC(C)(C)NCC(O)COc1ccccc1C#N (centres undefined)
ISA [1]: Partial agonist

NC[C@H](O)c1ccc(O)c(O)c1
ISA [5]: Agonist
